Source: patent US20210267944A1 (BioXcel Therapeutics, Inc., priority 2018, published 2021)
“And” between values parts separate entries of the source, which are not always exact repeats. Equal entries are not always repeated. Structures can show the parent of a compound that is named as a salt. Where two headings read alike, the source gives them in different places.

Experiments:
[1] = human, in vivo
Excerpt: In addition, we assessed the following Secondary Objectives: • a. Determine how rapidly the drug can be administered up to the total dose needed to achieve RASS −1. • b. Determine how long the calming effect persists after discontinuation of study drug administration. • c. Determine whether any adverse effects on blood pressure, heart rate, or respiratory drive occurs before or coincident with the achievement of Primary Objective. Stopping rules for blood pressure and heart rate, indicating a clinically significant event, are: • 1. drop in systolic BP<90 mm of Hg. • 2. drop in diastolic BP<60 mm of Hg • 3. drop below 50 beats per minute
The participants were continuously monitored during the study by the site personnel, including monitoring blood pressure and heart rate. Intermittent electrocardiograms were taken from the start of the infusion through resolution of the sedation and/or any adverse effects on blood pressure or heart rate.
Return to baseline parameters is defined as BP falling within 15 mm of Hg of baseline reading prior to drug administration or HR falling within 10 beats per minute of baseline reading prior to drug administration.

[2] = for Plasma concentrations: individual opioid withdrawal patients, IV infusion
[3] = clinical; conditions: human, in vivo; for concentration at 15 min / concentration at 30 min / concentration at 90 min / concentration at 45 min / concentration at 60 min / concentration at 75 min: Plasma level concentration
[4] = clinical; conditions: human, plasma, iv, Plasma concentrations, individual opioid withdrawal patients, IV infusion
[5] = Day 2 (printed Day −2), 00:00 Hr

## Cc1cccc([C@H](C)c2cnc[nH]2)c1C [dexmedetomidine hydrochloride]
[1]
  Hemodynamic effects: All
  adverse effect on blood pressure (systolic and diastolic) and heart rate: no adverse effect
  infusion time at which stopping criteria of <60 mm Hg was met: 135 min
[2]; Day 1 (printed Day −1), 00:00 Hr
  Plasma concentrations: BLQ
[2]; [5]
  Plasma concentrations: BLQ
[2]; Day 2 (printed Day −2), 01:00 Hr
  Plasma concentrations: 54.81 picograms/ml and 97.92 picograms/ml and 119.71 picograms/ml
[2]; Opioid withdrawal Study
  Plasma concentration achieved at efficacious doses: 0.011 to 0.406 ng/mL
[3]
  Cmax: 0.0225 to 0.406 ng/mL
[3]; Patient 1, Treatment, 15 min of infusion
  concentration at 15 min: 0.0225 ng/mL
[3]; Patient 1, Treatment
  concentration at 30 min: 0.0147 ng/mL
[3]; Patient 4, Treatment
  concentration at 90 min: 0.0443 ng/mL
[3]; Patient 11, Treatment, 15 min
  concentration at 15 min: 0.041 ng/mL
[3]; Patient 11, Treatment
  concentration at 30 min: 0.0629 ng/mL
  concentration at 45 min: 0.124 ng/mL
  concentration at 60 min: 0.15 ng/mL
[3]; Patient 12, Treatment
  concentration at 30 min: 0.0449 ng/mL
  concentration at 45 min: 0.0505 ng/mL
  concentration at 60 min: 0.109 ng/mL
  concentration at 75 min: 0.159 ng/mL
  concentration at 90 min: 0.238 ng/mL
[3]; Patient 14, Treatment
  concentration at 30 min: 0.0527 ng/mL
  concentration at 45 min: 0.0465 ng/mL
  concentration at 60 min: 0.406 ng/mL
[3]; Patient 16, Treatment, 15 min
  concentration at 15 min: 0.00256 ng/mL
[3]; Patient 16, Treatment
  concentration at 30 min: 0.0156 ng/mL
  concentration at 45 min: 0.0412 ng/mL
  concentration at 60 min: 0.0679 ng/mL
  concentration at 75 min: 0.0723 ng/mL
[3]; Patient 17, Treatment, 15 min
  concentration at 15 min: 0.0159 ng/mL
[3]; Patient 17, Treatment
  concentration at 45 min: 0.0399 ng/mL
[3]; Patient 18, Treatment, 15 min
  concentration at 15 min: 0.0484 ng/mL
[3]; Patient 18, Treatment
  concentration at 30 min: 0.0545 ng/mL
[4]; Day 1 (printed Day −1), 01:15 Hr
  concentration at […]: 0.0753 ng/mL
[4]; Day 1 (printed Day −1), 01:30 Hr
  concentration at […]: 0.112 ng/mL
[4]; [5]
  concentration at 0 h: 0.00821 ng/mL
[4]; Day 2 (printed Day −2), 01:15 Hr
  concentration at […]: 0.14 ng/mL
[4]; Day 2 (printed Day −2), 01:30 Hr
  concentration at […]: 0.177 ng/mL
[4]; Day 2 (printed Day −2), 01:45 Hr
  concentration at […]: 0.288 ng/mL
[4]; Day 2 (printed Day −2), 02:00 Hr
  concentration at 2 h: 0.404 ng/mL
